How the values were obtained:
Assay in all cases: Test B pre-/postemergence plant response
Assay type in all cases: in vivo
[1] = test system: pigweed (Amaranthus retroflexus)
Method in brief: (§1)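 Pre-em in loam/sand; post-em at 1–4 leaf (2–18 cm) in peat mix. Solvent + surfactant formulation. Greenhouse 13–15 d; visual % control vs untreated, 0–100.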

[2] = test system: Italian ryegrass (Lolium multiflorum)
Method in brief: as §1

kochia (Kochia scoparia) = conditions: Postemergence
Method in brief: as §1

[3] = test system: johnsongrass (Sorghum halepense)
Method in brief: as §1

[4] = test system: blackgrass (Alopecurus myosuroides)
Method in brief: as §1

[5] = test system: velvetleaf (Abutilon theophrasti)
Method in brief: as §1

[6] = test system: Surinam grass (Brachiaria decumbens)
Method in brief: as §1

[7] = test system: downy bromegrass (Bromus tectorum)
Method in brief: as §1

[8] = test system: woolly cupgrass (Eriochloa villosa)
Method in brief: as §1

soybean (Glycine max) = test system: soybean (Glycine max)
Method in brief: as §1

[9] = test system: giant foxtail (Setaria faberii)
Method in brief: as §1

corn (Zea mays) = test system: corn (Zea mays)
Method in brief: as §1

[10] = test system: ragweed (common ragweed, Ambrosia elatior)
Method in brief: as §1

[11] = 250 g ai/ha, Preemergence, 0 to 100 scale
[12] = Postemergence, 62 g ai/ha, scale 0 (no effect) to 100 (complete control), 13 to 15 days
[13] = Postemergence, 125 g ai/ha, visual rating after 13 to 15 days, scale 0 (no effect) to 100 (complete control)
[14] = Preemergence, 31 g ai/ha, scale 0 to 100 (0 no effect, 100 complete control)
[15] = Preemergence, 125 g ai/ha, 0 to 100 scale
[16] = Postemergence, 250 g ai/ha, scale 0 to 100
[17] = Preemergence, 62 g ai/ha, scale 0 to 100 (0 no effect, 100 complete control)
[18] = Postemergence, 31 g ai/ha, scale 0 to 100 (0 no effect, 100 complete control)
[19] = Postemergence, 31 g ai/ha, 0 to 100 scale (0 no effect, 100 complete control)
[20] = Postemergence, 125 g ai/ha, scale 0 to 100 (0 no effect, 100 complete control)
[21] = Postemergence, 250 g ai/ha, scale 0 to 100 (0 no effect, 100 complete control), 13 to 15 days
[22] = 62 g ai/ha, postemergence, 0 is no effect, 100 is complete control, 13 to 15 days

`Cc1c(Cl)cccc1-n1c(-c2ccccc2)ncc(C(=O)C2=C(O)CCCC2=O)c1=O` [Compound 40] was tested, and the “Plant response rating, Pigweed” value [1, 11] was 100, the “Plant response rating, Pigweed” value [1, 12] was 98 and the “Plant response rating, Pigweed” value [1, 13] was 100. The “Plant response rating, Pigweed” value [1, 14] was 98, the “Pigweed plant response rating” value [1, 15] was 100 and the “Plant response rating, Ryegrass, Italian” value [2, 11] was 5. For the same molecule, the “Plant response rating, Ryegrass, Italian” value [2, 12] was 0, the “Plant response rating, Ryegrass, Italian” value [2, 13] was 0 and the “Plant response rating, Ryegrass, Italian” value [2, 14] was 0. For the same molecule, the “Ryegrass, Italian plant response rating” value [2, 15] was 5, the “Plant response rating, Kochia” value (kochia (Kochia scoparia); 62 g ai/ha, scale 0 (no effect) to 100 (complete control), 13 to 15 days) was 0 and the “Plant response rating, Kochia” value (kochia (Kochia scoparia); 125 g ai/ha, visual rating after 13 to 15 days, scale 0 (no effect) to 100 (complete control)) was 10. The “Kochia plant response rating” value (kochia (Kochia scoparia); 250 g ai/ha, scale 0 to 100) was 75, the “Plant response rating, Johnsongrass” value [3, 11] was 90 and the “Plant response rating, Johnsongrass” value [3, 13] was 75. For the same molecule, the “Johnsongrass plant response rating” value [3, 16] was 100, the “Plant response rating, Johnsongrass” value [3, 14] was 10 and the “Plant response rating, Johnsongrass” value [3, 17] was 80. For the same molecule, the “Johnsongrass plant response rating” value [3, 15] was 85, the “Plant response rating, Blackgrass” value [4, 11] was 5 and the “Plant response rating, Blackgrass” value [4, 18] was 0. For the same molecule, the “Plant response rating, Blackgrass” value [4, 12] was 10, the “Plant response rating, Blackgrass” value [4, 13] was 10 and the “Blackgrass plant response rating” value [4, 16] was 15. The “Plant response rating, Blackgrass” value [4, 14] was 0, the “Plant response rating, Blackgrass” value [4, 17] was 0 and the “Blackgrass plant response rating” value [4, 15] was 0. For the same molecule, the “Plant response rating, Velvetleaf” value [5, 11] was 100, the “Plant response rating, Velvetleaf” value [5, 12] was 100 and the “Plant response rating, Velvetleaf” value [5, 13] was 100. The “Plant response rating, Velvetleaf” value [5, 14] was 80, the “Velvetleaf plant response rating” value [5, 15] was 100 and the “Plant response rating, Surinam Grass” value [6, 11] was 90. For the same molecule, the “Plant response rating, Surinam Grass” value [6, 12] was 95, the “Plant response rating, Surinam Grass” value [6, 13] was 98 and the “Plant response rating, Surinam Grass” value [6, 14] was 40. For the same molecule, the “Surinam Grass plant response rating” value [6, 15] was 85, the “Plant response rating, Bromegrass, Downy” value [7, 11] was 10 and the “Plant response rating, Bromegrass, Downy” value [7, 18] was 45. The “Plant response rating, Bromegrass, Downy” value [7, 12] was 50, the “Plant response rating, Bromegrass, Downy” value [7, 13] was 70 and the “Bromegrass, Downy plant response rating” value [7, 16] was 85. The “Plant response rating, Bromegrass, Downy” value [7, 14] was 0, the “Plant response rating, Bromegrass, Downy” value [7, 17] was 0 and the “Bromegrass, Downy plant response rating” value [7, 15] was 5. The “Plant response rating, Cupgrass, Woolly” value [8, 11] was 85, the “Plant response rating, Cupgrass, Woolly” value [8, 18] was 90 and the “Plant response rating, Cupgrass, Woolly” value [8, 12] was 95. The “Plant response rating, Cupgrass, Woolly” value [8, 13] was 98, the “Cupgrass, Woolly plant response rating” value [8, 16] was 98 and the “Plant response rating, Cupgrass, Woolly” value [8, 14] was 0. The “Plant response rating, Cupgrass, Woolly” value [8, 17] was 50, the “Cupgrass, Woolly plant response rating” value [8, 15] was 70 and the “Plant response rating, Soybean” value (soybean (Glycine max); [11]) was 70. For the same molecule, the “Plant response rating, Soybean” value (soybean (Glycine max); [12]) was 100, the “Plant response rating, Soybean” value (soybean (Glycine max); [13]) was 100 and the “Plant response rating, Soybean” value (soybean (Glycine max); [14]) was 0. The “Soybean plant response rating” value (soybean (Glycine max); [15]) was 20, the “Plant response rating, Foxtail, Giant” value [9, 11] was 98 and the “Plant response rating, Foxtail, Giant” value [9, 18] was 100. For the same molecule, the “Plant response rating, Foxtail, Giant” value [9, 12] was 100, the “Plant response rating, Foxtail, Giant” value [9, 13] was 100 and the “Foxtail, Giant plant response rating” value [9, 16] was 100. The “Plant response rating, Foxtail, Giant” value [9, 14] was 10, the “Plant response rating, Foxtail, Giant” value [9, 17] was 65 and the “Foxtail, Giant plant response rating” value [9, 15] was 80. The “Plant response rating, Corn” value (corn (Zea mays); [11]) was 0, the “Plant response rating, Corn” value (corn (Zea mays); [18]) was 80 and the “Plant response rating, Corn” value (corn (Zea mays); [12]) was 80. For the same molecule, the “Plant response rating, Corn” value (corn (Zea mays); [13]) was 85, the “Corn plant response rating” value (corn (Zea mays); [16]) was 90 and the “Plant response rating, Corn” value (corn (Zea mays); [14]) was 0. The “Plant response rating, Corn” value (corn (Zea mays); [17]) was 0, the “Corn plant response rating” value (corn (Zea mays); [15]) was 0 and the “Plant response rating, Ragweed” value [10, 11] was 95. For the same molecule, the “Plant response rating, Ragweed” value [10, 12] was 98, the “Plant response rating, Ragweed” value [10, 13] was 98 and the “Plant response rating, Ragweed” value [10, 14] was 75. For the same molecule, the “Ragweed plant response rating” value [10, 15] was 90.

With `O=C1CCCC(O)=C1C(=O)c1cnc(-c2cc(F)cc(F)c2)n(C2CCCCC2)c1=O` [Compound 181] the “Plant response rating, Pigweed” value [1, 19] was 100, the “Plant response rating, Pigweed” value [1, 20] was 100 and the “Plant response rating, Pigweed” value [1, 21] was 100. For the same molecule, the “Plant response rating, Ryegrass, Italian” value [2, 19] was 10, the “Plant response rating, Ryegrass, Italian” value [2, 20] was 60 and the “Plant response rating, Ryegrass, Italian” value [2, 21] was 65. For the same molecule, the “Plant response rating, Kochia” value (kochia (Kochia scoparia); 31 g ai/ha, 0 to 100 scale (0 no effect, 100 complete control)) was 65, the “Plant response rating, Kochia” value (kochia (Kochia scoparia); 125 g ai/ha, scale 0 to 100 (0 no effect, 100 complete control)) was 100 and the “Plant response rating, Kochia” value (kochia (Kochia scoparia); 250 g ai/ha, scale 0 to 100 (0 no effect, 100 complete control), 13 to 15 days) was 100. For the same molecule, the “Plant response rating, Johnsongrass” value [3, 19] was 100, the “Plant response rating, Johnsongrass” value [3, 20] was 100 and the “Plant response rating, Johnsongrass” value [3, 21] was 100. For the same molecule, the “Blackgrass plant response rating (0 to 100 scale)” value [4, 22] was 5, the “Plant response rating, Blackgrass” value [4, 19] was 0 and the “Plant response rating, Blackgrass” value [4, 20] was 15. For the same molecule, the “Plant response rating, Blackgrass” value [4, 21] was 15, the “Plant response rating, Velvetleaf” value [5, 19] was 100 and the “Plant response rating, Velvetleaf” value [5, 20] was 100. The “Plant response rating, Velvetleaf” value [5, 21] was 100, the “Plant response rating, Surinam Grass” value [6, 19] was 70 and the “Plant response rating, Surinam Grass” value [6, 20] was 95. The “Plant response rating, Surinam Grass” value [6, 21] was 100, the “Bromegrass, Downy plant response rating (0 to 100 scale)” value [7, 22] was 50 and the “Plant response rating, Bromegrass, Downy” value [7, 19] was 40. The “Plant response rating, Bromegrass, Downy” value [7, 20] was 60, the “Plant response rating, Bromegrass, Downy” value [7, 21] was 85 and the “Plant response rating, Cupgrass, Woolly” value [8, 19] was 80. The “Plant response rating, Cupgrass, Woolly” value [8, 20] was 100, the “Plant response rating, Cupgrass, Woolly” value [8, 21] was 100 and the “Plant response rating, Soybean” value (soybean (Glycine max); [19]) was 100. For the same molecule, the “Plant response rating, Soybean” value (soybean (Glycine max); [20]) was 100, the “Plant response rating, Soybean” value (soybean (Glycine max); [21]) was 100 and the “Plant response rating, Foxtail, Giant” value [9, 19] was 98. The “Plant response rating, Foxtail, Giant” value [9, 20] was 100, the “Plant response rating, Foxtail, Giant” value [9, 21] was 100 and the “Plant response rating, Corn” value (corn (Zea mays); [19]) was 70. The “Plant response rating, Corn” value (corn (Zea mays); [20]) was 95, the “Plant response rating, Corn” value (corn (Zea mays); [21]) was 95 and the “Plant response rating, Ragweed” value [10, 19] was 98. The “Plant response rating, Ragweed” value [10, 20] was 100 and the “Plant response rating, Ragweed” value [10, 21] was 100.

Source: patent US8952024B2, “Herbicidal pyrimidone derivatives” (E I du Pont de Nemours and Company, priority 2009, dated 2015)
